Test results from patent publication US8436013B2, “Compounds and methods for treatment of alpha-1 antitrypsin deficiency” (University of Florida Research Foundation, Inc., priority 2007, dated 2013).
Entries after “also recorded” stand apart in the source; their conditions may differ.

Tests used:
ATZ [1] = molecular target: T1, ATZ (Homo sapiens, UniProt P01009, E366K); test: Pulse-chase (35S labelling, anti-AAT immunoprecipitation) ATZ secretion in CHO cells; assay type: cell-based; settings: CHO cells labeled with 35S, vs DMSO control
T1 construct: expressed in transfected cells; host or cells: CHO-ATZ cells
T1 sequence (P01009 25-418 E366K): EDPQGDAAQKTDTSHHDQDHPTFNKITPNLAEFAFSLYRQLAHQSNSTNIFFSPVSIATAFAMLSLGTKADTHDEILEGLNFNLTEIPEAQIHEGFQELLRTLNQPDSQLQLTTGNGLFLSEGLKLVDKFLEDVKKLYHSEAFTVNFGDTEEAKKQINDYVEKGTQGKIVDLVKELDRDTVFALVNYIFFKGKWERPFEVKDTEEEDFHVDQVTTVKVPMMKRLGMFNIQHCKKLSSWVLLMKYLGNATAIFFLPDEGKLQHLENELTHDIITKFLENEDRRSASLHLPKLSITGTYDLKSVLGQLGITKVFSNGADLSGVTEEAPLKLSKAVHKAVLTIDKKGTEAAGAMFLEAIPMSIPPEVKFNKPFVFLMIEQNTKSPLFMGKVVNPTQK
Text: FIG. 5. Polymer inhibitor (1,9-decadiene) increases ATZ secretion. The cells were labeled with ^35S and harvested at the indicated time points. The protein extracts were immunoprecipitated using anti-AAT antibody. The immunocomplexes were then resolved in PAGE gel. The intensity of AAT bands were then quantified and calculated. FIG. 5A is the cells treated with DMSO control; FIG. 5B represents result of cells with polymer inhibitor treatment. […] A non-denaturing gel was used to analyze cell extracts from compound-treated CHO ATZ cells.

ATZ [2] = molecular target: T1, ATZ; test: ATZ secretion from CHO-ATZ cells, ELISA of culture supernatant; assay type: cell-based; settings: various concentrations, supernatants at 24, 48 and 72 hours, DMSO controls
Protocol: FIG. 3. Effects of small molecule compounds on AAT secretion in cells. The CHO-ATZ cells were treated with various concentrations of NCI compounds. The culture supernatants were harvested for ELISA analysis. The data represent the means from 4-separate experiments.
Compounds listed in Table 1 were obtained from NCI/DTP. The compounds were dissolved in DMSO. As the first step, the compounds were tested in CHO-ATZ cells. Various concentrations of the compounds were added to the cells. The supernatants were harvested at time points: 24, 48, and 72 hours. The samples were then used for ELISA assay for human AAT.
(§1) Compounds were used to treat CHO-ATZ cells at various concentrations. Cell supernatant was harvested at different time points. ELISA test was performed to determine the level of ATZ in the supernatant. The cells were also harvested for Western blot analysis.

ATZ [3] = molecular target: T1, ATZ; test: ATZ accumulation in treated cells, Western blot; assay type: cell-based; settings: cells treated with polymer inhibitor vs controls
Protocol: FIG. 4. Polymer inhibitor (1,9-decadiene) reduces the ATZ accumulation in cells. Cells were treated with polymer inhibitor and harvested for Western blot analysis.
as §1
We then examined these two potentially effective inhibitors. The cells were treated by the inhibitors, followed by protein extraction and Western blot analysis.

AAT-Z transgenic mice = test: Liver histology (PASD staining, inflammation) in AAT-Z transgenic mice; assay type: in vivo; settings: i.p. injection for 7 days, vs control
Protocol: FIG. 7. Compounds according to the invention decrease AAT accumulation and reduce inflammation in liver cells compared to control. AAT-Z transgenic mice were treated by i.p. injection of a compound or control for 7 days, followed by collection of liver tissue.
Compounds according to the invention decrease AAT accumulation and reduce inflammation in liver cells compared to control. AAT-Z transgenic mice were treated by i.p. injection of a compound or control for 7 days, followed by collection of liver tissue.

[4] = test system: transgenic mice carrying a human ATZ transgene; test: Serum AAT level (ELISA) in transgenic mice carrying a human ATZ transgene; assay type: in vivo; settings: treated for two weeks
Protocol: FIG. 6. Compounds according to the invention can increase AAT secretion in transgenic animals. The animals were treated for two weeks. Serum AAT levels were determined by ELISA assay.
Two test compounds were administered to transgenic mice (four animals per group, including control) carrying a human ATZ transgene to determine whether the compounds are capable of increasing AAT secretion in a transgenic animal model. The animals were treated for two weeks. Serum AAT levels were determined by ELISA assay.

[5] = test system: human ATZ transgenic model; settings: cited from earlier work

Row | SMILES | ATZ secretion (pulse-chase) (ATZ [1]) | ATZ secretion (ELISA of supernatant) (ATZ [2]) | ATZ secretion (ELISA of supernatant) (ATZ [2]; listed as NSC 102789) | ATZ accumulation in cells (Western blot) (ATZ [3]) | AAT accumulation in hepatocytes (PASD staining) (AAT-Z transgenic mice) | liver tissue inflammation (AAT-Z transgenic mice) | AAT serum level enhancement [4] | ATZ secretion (ELISA of supernatant) (ATZ [2]; listed as NSC 21034) | blood levels of AAT [5]
1 | C=CCCCCCCC=C [1,9-decadiene] | increases the ATZ secretion in the supernatant | effectively enhance ATZ secretion in the cells | appear to be effective for inhibition of ATZ secretion | reduced amount of ATZ; also recorded: effectively reduce the accumulation of ATZ in cells | decrease AAT accumulation in hepatocytes | reduced live tissue inflammation | more than two-fold |  | 
2 | O=C(O)/C=C/c1cc2c(cc1[N+](=O)[O-])OCO2 [3,4-methylenedioxy-6-nitrocinnamic acid] |  | effectively enhance ATZ secretion in the cells |  |  | decrease AAT accumulation in hepatocytes | reduced live tissue inflammation | more than two-fold | appear to be effective for inhibition of ATZ secretion | 
3 | O=C(O)CCCc1ccccc1 [4-phenylbutyric acid] |  |  |  |  |  |  |  |  | can increase blood levels of AAT
